In ChEMBL document CHEMBL1201862, “PubChem BioAssay data set” (2004):
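Grown in 96-well plates, cells were treated for 48 hours with each compound at five concentrations. Insufficient inhibition: endpoint recorded as highest concentration tested. GI50 = concentration required for 50% inhibition of growth.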 Calls of active or inactive are those of the source. Rule as the data show it: active = GI50 up to about 1.1 µM and inactive = higher.

Key:
Assay in all cases: inhibition of tumour cell growth, NCI panel, 48 h
[1] = test system: 786-0
[2] = test system: A498
[3] = test system: A549
[4] = test system: ACHN
[5] = test system: BT-549
[6] = test system: CAKI-1
[7] = test system: CCRF-CEM
[8] = test system: DU-145
[9] = test system: EKVX
[10] = test system: HCC 2998
[11] = test system: HCT-116
[12] = test system: HCT-15
[13] = test system: HL-60
[14] = test system: HOP-62
[15] = test system: HOP-92
[16] = test system: HT-29
[17] = test system: Hs-578T
[18] = test system: IGROV-1
[19] = test system: K562
[20] = test system: KM12
[21] = test system: LOX IMVI
[22] = test system: M14
[23] = test system: MCF7
[24] = test system: MDA-MB-231
[25] = test system: MDA-N
[26] = test system: MOLT-4
[27] = test system: Malme-3M
[28] = test system: NCI-H226
[29] = test system: NCI-H23
[30] = test system: NCI-H460
[31] = test system: NCI-H522
[32] = test system: OVCAR-3
[33] = test system: OVCAR-4
[34] = test system: OVCAR-5
[35] = test system: OVCAR-8
[36] = test system: PC-3
[37] = test system: RPMI-8226
[38] = test system: RXF 393
[39] = test system: SF-268
[40] = test system: SF-295
[41] = test system: SF-539
[42] = test system: SK-MEL-28
[43] = test system: SK-MEL-5
[44] = test system: SN12C
[45] = test system: SNB-19
[46] = test system: SNB-75
[47] = test system: SR
[48] = test system: SW-620
[49] = test system: T47D
[50] = test system: TK-10
[51] = test system: U-251
[52] = test system: UACC-257
[53] = test system: UO-31

O=C(c1cc(Cl)ccc1Cl)N1CCN(c2ccc(Cl)c(Cl)c2)CC1
GI50 [1]: 19.7 µM (inactive)
GI50 [2]: 11.5 µM (inactive)
GI50 [3]: 26.9 µM (inactive)
GI50 [4]: 47 µM (inactive)
GI50 [5]: 25.2 µM (inactive)
GI50 [6]: 35.8 µM (inactive)
GI50 [7]: 41.6 µM (inactive)
GI50 [8]: 61.2 µM (inactive)
GI50 [9]: 37.2 µM (inactive)
GI50 [10]: 26.7 µM (inactive)
GI50 [11]: 21 µM (inactive)
GI50 [12]: 13.2 µM
GI50 [13]: 76.9 µM (inactive)
GI50 [14]: 67.5 µM (inactive)
GI50 [15]: 54.2 µM (inactive)
GI50 [16]: 22.8 µM (inactive)
GI50 [17]: 45.9 µM (inactive)
GI50 [18]: 39.4 µM (inactive)
GI50 [19]: 18.1 µM (inactive)
GI50 [20]: 16 µM (inactive)
GI50 [21]: 26.4 µM (inactive)
GI50 [22]: > 10 µM (inactive)
GI50 [23]: 8.67 µM (inactive)
GI50 [24]: 29.1 µM (inactive)
GI50 [25]: 38.1 µM (inactive)
GI50 [26]: 20.6 µM (inactive)
GI50 [27]: 17.9 µM (inactive)
GI50 [28]: 13.6 µM (inactive)
GI50 [29]: 33.5 µM (inactive)
GI50 [30]: 17 µM (inactive)
GI50 [31]: 20.7 µM (inactive)
GI50 [32]: 31.4 µM (inactive)
GI50 [33]: 51.5 µM (inactive)
GI50 [34]: 16.6 µM (inactive)
GI50 [35]: 12.5 µM (inactive)
GI50 [36]: 42.8 µM (inactive)
GI50 [37]: 74.6 µM (inactive)
GI50 [38]: 15.4 µM (inactive)
GI50 [39]: 47.2 µM (inactive)
GI50 [40]: 45.4 µM (inactive)
GI50 [41]: 19.2 µM (inactive)
GI50 [42]: 39.6 µM (inactive)
GI50 [43]: 14.6 µM (inactive)
GI50 [44]: 33.3 µM (inactive)
GI50 [45]: > 10 µM (inactive)
GI50 [46]: 31.1 µM (inactive)
GI50 [47]: 34.9 µM (inactive)
GI50 [48]: 49.1 µM (inactive)
GI50 [49]: 2.45 µM (inactive)
GI50 [50]: 31.9 µM (inactive)
GI50 [51]: 27.2 µM (inactive)
GI50 [52]: 29.9 µM (inactive)
GI50 [53]: 14.8 µM (inactive)
